Laboratory results taken from patent publication US10231954B2, “Neurodegenerative therapies” (LYTIX BIOPHARMA AS, priority 2014, dated 2019).

Legend:
Type in all cases: biochemical
AMPK = assay: Kinase profiling AMPK; settings: 100 micromolar inhibitor concentration; 100 is no change
Excerpt: (§1) Any value less that 25 is considered to be highly significant inhibition.

MEKK1 = MEKK1 (Homo sapiens, UniProt Q13233); assay: Kinase profiling MEKK1; settings: 100 micromolar inhibitor concentration, 100 is no change; for remaining activity at 100 µM: read-out: residual kinase activity, MEKK1
Excerpt: as §1

CDK9-Cyclin T1 = CDK9-Cyclin T1 (Homo sapiens, UniProt P50750); assay: Kinase profiling CDK9-Cyclin T1; settings: 100 micromolar inhibitor concentration, 100 is no change; for remaining activity at 100 µM: read-out: residual kinase activity, CDK9-Cyclin T1
Excerpt: as §1

MINK1 = MINK1 (Homo sapiens, UniProt Q8N4C8); assay: Kinase profiling MINK1; settings: 100 micromolar inhibitor concentration, 100 is no change; for remaining activity at 100 µM: read-out: residual kinase activity, MINK1
MINK1, sequence (Q8N4C8 whole entry, species assumed): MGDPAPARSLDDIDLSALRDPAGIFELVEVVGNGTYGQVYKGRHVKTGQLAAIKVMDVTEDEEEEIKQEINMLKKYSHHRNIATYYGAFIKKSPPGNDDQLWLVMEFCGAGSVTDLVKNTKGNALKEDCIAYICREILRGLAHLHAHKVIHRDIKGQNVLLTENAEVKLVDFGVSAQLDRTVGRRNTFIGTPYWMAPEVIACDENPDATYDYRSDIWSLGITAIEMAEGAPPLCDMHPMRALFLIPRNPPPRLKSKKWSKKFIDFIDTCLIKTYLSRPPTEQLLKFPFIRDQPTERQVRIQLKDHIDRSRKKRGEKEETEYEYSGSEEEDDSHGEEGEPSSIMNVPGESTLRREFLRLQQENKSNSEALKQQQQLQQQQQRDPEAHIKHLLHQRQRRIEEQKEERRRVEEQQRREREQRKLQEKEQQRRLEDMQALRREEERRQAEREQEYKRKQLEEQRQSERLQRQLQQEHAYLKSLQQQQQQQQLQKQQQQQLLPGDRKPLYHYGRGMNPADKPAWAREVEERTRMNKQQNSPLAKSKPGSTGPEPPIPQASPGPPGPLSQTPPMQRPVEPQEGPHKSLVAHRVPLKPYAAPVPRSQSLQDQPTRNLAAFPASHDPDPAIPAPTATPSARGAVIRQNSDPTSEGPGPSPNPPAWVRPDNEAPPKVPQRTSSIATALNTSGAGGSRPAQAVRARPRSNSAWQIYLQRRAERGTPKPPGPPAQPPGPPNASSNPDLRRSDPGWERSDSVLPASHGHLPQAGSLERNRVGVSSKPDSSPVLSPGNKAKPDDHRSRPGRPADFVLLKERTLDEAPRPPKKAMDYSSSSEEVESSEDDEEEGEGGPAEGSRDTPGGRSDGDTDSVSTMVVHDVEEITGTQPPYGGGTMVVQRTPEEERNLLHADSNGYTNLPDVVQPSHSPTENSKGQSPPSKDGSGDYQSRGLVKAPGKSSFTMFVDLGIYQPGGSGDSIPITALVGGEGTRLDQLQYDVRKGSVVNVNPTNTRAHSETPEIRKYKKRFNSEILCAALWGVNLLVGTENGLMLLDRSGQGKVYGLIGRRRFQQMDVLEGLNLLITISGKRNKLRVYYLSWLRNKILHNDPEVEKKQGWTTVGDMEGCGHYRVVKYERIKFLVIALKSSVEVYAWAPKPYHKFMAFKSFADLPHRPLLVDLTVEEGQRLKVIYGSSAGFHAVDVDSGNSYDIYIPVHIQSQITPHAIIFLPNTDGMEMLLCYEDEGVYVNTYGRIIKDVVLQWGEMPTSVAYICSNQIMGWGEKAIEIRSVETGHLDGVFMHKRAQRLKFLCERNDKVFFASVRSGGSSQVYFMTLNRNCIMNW
Excerpt: as §1

IKKb = target: T1, IKKb (Homo sapiens, UniProt O14920); assay: Kinase profiling IKKb; settings: 100 micromolar inhibitor concentration, 100 is no change; for remaining activity at 100 µM: read-out: residual kinase activity, IKKb
T1 sequence (O14920 1-756): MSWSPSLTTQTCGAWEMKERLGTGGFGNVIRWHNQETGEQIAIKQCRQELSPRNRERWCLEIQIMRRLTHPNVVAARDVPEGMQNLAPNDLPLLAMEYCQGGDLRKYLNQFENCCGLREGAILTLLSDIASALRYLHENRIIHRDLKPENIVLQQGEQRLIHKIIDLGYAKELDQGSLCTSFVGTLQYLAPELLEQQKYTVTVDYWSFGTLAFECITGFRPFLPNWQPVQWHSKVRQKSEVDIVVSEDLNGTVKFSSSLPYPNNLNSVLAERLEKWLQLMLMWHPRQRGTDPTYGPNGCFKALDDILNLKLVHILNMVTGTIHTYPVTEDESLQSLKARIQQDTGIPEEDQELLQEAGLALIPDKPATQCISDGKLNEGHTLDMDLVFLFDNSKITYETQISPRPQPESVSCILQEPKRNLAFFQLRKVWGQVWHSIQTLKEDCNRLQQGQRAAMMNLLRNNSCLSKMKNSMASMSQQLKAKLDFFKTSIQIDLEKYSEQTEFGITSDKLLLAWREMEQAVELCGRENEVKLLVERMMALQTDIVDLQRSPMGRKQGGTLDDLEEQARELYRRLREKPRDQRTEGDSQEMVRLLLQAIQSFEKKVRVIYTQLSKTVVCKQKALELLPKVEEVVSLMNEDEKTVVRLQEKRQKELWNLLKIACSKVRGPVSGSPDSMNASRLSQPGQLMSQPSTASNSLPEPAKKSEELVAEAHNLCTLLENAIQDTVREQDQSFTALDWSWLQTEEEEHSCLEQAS
Excerpt: as §1

MNK1 = MNK1 (Homo sapiens, UniProt Q9BUB5); assay: Kinase profiling MNK1; settings: 100 micromolar inhibitor concentration, 100 is no change; for remaining activity at 100 µM: read-out: residual kinase activity, MNK1
MNK1, sequence (Q9BUB5 whole entry, species assumed): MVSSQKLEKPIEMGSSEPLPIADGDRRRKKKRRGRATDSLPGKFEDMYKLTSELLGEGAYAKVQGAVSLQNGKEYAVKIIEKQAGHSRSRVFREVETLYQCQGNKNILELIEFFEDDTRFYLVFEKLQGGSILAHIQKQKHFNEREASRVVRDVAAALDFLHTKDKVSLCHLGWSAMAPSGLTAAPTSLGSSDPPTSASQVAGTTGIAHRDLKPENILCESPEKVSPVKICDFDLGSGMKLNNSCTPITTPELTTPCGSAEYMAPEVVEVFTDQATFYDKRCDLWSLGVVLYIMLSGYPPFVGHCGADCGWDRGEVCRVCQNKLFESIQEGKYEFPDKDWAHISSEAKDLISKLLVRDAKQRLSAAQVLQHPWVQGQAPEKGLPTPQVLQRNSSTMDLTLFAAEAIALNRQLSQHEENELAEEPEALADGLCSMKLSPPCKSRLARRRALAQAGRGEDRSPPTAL
Excerpt: as §1

BRK = BRK (Homo sapiens, UniProt Q13882); assay: Kinase profiling BRK; settings: 100 micromolar inhibitor concentration, 100 is no change; for remaining activity at 100 µM: read-out: residual kinase activity, BRK
Excerpt: as §1

DAPK1 = DAPK1 (Homo sapiens, UniProt P53355); assay: Kinase profiling DAPK1; settings: 100 micromolar inhibitor concentration, 100 is no change; for remaining activity at 100 µM: read-out: residual kinase activity, DAPK1
Excerpt: as §1

SIK2 = SIK2 (Homo sapiens, UniProt Q9H0K1); assay: Kinase profiling SIK2; settings: 100 micromolar inhibitor concentration, 100 is no change; for remaining activity at 100 µM: read-out: residual kinase activity, SIK2
SIK2, sequence (Q9H0K1 whole entry, species assumed): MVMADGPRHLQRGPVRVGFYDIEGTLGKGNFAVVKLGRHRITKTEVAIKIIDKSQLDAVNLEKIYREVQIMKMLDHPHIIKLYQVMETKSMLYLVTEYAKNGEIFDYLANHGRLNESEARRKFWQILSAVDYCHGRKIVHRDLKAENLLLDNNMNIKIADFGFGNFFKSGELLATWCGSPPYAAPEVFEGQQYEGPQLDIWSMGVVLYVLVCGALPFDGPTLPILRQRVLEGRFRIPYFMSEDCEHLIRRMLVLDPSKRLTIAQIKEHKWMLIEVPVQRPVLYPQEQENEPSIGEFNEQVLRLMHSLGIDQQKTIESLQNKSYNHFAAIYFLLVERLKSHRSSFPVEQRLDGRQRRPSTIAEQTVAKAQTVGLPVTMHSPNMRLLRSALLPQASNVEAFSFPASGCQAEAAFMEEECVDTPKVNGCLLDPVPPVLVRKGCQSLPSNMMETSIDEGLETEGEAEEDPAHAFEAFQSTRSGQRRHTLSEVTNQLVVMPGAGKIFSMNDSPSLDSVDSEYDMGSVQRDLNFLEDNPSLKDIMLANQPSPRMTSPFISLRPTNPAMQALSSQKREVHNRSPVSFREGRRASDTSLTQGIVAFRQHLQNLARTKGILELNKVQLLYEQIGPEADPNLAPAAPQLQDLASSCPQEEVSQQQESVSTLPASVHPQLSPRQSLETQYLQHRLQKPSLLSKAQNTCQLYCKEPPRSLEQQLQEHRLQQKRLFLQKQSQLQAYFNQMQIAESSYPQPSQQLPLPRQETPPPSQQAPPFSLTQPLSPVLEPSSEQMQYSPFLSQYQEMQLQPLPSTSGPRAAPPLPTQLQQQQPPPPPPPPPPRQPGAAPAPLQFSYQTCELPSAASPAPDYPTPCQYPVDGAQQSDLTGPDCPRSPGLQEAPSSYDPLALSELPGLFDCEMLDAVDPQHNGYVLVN
Excerpt: as §1

CK1γ2 = CK1γ2 (Homo sapiens, UniProt P78368); assay: Kinase profiling CK1γ2; settings: 100 micromolar inhibitor concentration, 100 is no change; for remaining activity at 100 µM: read-out: residual kinase activity, CK1γ2
CK1γ2, sequence (P78368 whole entry): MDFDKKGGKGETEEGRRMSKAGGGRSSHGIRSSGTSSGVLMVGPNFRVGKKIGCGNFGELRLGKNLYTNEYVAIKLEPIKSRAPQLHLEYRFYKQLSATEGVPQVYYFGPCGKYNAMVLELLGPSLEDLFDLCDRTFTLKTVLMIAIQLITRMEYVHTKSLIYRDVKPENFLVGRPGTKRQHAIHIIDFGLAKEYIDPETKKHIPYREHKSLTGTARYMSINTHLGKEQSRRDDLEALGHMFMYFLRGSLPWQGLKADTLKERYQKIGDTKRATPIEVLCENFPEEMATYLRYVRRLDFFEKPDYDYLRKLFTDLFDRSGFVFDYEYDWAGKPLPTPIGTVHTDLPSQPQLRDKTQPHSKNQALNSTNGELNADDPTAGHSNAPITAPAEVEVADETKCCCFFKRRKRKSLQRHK
Excerpt: as §1

PIM2 = PIM2 (Homo sapiens, UniProt Q9P1W9); assay: Kinase profiling PIM2; settings: 100 micromolar inhibitor concentration, 100 is no change; for remaining activity at 100 µM: read-out: residual kinase activity, PIM2
PIM2, sequence (Q9P1W9 whole entry, species assumed): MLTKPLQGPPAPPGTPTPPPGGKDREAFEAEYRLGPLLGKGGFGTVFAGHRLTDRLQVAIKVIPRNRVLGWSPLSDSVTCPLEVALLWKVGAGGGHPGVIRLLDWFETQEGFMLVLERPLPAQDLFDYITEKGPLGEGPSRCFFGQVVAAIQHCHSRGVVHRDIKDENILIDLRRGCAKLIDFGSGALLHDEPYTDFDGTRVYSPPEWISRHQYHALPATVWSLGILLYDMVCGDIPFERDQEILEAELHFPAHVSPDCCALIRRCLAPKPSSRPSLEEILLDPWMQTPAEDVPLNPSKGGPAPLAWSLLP
Excerpt: as §1

MST4 = MST4 (Homo sapiens, UniProt Q9P289); assay: Kinase profiling MST4; settings: 100 micromolar inhibitor concentration, 100 is no change; for remaining activity at 100 µM: read-out: residual kinase activity, MST4
Excerpt: as §1

BRSK2 = target: T2, BRSK2 (Homo sapiens, UniProt Q8IWQ3); assay: Kinase profiling BRSK2; settings: 100 micromolar inhibitor concentration, 100 is no change; for remaining activity at 100 µM: read-out: residual kinase activity, BRSK2
T2 sequence (Q8IWQ3 1-736): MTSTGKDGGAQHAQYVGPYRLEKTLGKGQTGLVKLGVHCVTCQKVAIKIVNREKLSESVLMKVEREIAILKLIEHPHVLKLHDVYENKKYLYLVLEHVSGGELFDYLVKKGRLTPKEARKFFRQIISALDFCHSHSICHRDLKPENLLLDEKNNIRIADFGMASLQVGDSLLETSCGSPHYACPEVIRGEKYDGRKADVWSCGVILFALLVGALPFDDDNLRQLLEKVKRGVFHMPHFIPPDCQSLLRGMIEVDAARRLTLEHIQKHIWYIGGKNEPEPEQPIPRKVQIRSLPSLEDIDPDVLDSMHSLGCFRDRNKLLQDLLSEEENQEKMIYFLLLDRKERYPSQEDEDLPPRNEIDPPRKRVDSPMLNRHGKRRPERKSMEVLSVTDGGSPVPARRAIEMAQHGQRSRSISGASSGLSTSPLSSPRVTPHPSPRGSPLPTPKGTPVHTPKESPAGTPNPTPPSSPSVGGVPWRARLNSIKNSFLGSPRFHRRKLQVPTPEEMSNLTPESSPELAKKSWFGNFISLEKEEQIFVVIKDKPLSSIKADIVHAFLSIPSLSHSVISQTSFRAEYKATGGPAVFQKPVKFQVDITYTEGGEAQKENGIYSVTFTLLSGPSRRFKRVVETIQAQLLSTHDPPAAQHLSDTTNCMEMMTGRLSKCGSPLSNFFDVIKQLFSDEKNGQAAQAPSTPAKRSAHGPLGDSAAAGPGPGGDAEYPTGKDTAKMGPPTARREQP
Excerpt: as §1

CSK = CSK (Homo sapiens, UniProt P41240); assay: Kinase profiling CSK; settings: 100 micromolar inhibitor concentration, 100 is no change; for remaining activity at 100 µM: read-out: residual kinase activity, CSK
CSK, sequence (P41240 whole entry, species assumed): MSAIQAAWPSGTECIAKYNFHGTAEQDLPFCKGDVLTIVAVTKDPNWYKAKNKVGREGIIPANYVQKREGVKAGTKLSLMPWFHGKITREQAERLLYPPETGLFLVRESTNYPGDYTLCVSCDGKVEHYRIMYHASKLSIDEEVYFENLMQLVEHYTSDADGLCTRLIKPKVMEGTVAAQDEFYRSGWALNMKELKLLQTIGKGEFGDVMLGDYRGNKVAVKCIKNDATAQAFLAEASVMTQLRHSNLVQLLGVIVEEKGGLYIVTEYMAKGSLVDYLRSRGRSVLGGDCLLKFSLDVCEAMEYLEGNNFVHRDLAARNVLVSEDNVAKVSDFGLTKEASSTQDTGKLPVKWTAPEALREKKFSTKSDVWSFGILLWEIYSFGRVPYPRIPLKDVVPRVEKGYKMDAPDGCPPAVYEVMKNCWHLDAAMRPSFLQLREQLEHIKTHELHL
Excerpt: as §1

MLK1 = MLK1 (Homo sapiens, UniProt P80192); assay: Kinase profiling MLK1; settings: 100 micromolar inhibitor concentration, 100 is no change; for remaining activity at 100 µM: read-out: residual kinase activity, MLK1
MLK1, sequence (P80192 whole entry, species assumed): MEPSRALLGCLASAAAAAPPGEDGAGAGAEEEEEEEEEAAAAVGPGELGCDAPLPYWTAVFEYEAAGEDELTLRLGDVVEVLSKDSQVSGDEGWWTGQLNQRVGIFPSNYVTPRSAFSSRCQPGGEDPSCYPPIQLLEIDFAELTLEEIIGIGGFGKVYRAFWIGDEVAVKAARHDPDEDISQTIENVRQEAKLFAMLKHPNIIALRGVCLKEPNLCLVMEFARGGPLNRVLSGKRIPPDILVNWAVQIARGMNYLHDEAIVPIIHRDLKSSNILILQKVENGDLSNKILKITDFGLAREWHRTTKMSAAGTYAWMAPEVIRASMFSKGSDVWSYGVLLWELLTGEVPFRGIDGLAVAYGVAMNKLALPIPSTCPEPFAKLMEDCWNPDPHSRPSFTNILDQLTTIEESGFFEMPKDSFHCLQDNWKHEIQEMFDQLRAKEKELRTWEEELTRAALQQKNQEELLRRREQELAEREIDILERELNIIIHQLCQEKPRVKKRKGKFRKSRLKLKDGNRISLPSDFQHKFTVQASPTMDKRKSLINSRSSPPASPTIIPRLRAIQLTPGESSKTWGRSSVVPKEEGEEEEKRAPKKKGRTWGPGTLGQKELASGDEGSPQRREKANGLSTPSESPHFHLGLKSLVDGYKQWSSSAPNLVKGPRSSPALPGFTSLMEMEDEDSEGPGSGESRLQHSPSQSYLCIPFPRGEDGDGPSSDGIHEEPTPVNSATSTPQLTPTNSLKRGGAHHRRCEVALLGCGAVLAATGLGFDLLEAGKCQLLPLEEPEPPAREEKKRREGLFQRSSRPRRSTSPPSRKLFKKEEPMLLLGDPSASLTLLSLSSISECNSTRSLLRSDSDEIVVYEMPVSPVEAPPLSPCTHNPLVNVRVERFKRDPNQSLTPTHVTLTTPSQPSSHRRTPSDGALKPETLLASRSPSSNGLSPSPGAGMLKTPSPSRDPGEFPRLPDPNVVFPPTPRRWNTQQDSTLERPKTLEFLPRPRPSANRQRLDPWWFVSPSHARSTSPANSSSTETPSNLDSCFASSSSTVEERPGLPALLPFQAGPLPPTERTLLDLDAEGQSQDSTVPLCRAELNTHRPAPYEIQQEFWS
Excerpt: as §1

For `CC(=O)Nc1nc2ccc(C#N)cc2s1` [Compound 01-94], the “residual kinase activity, AMPK” value (AMPK) was 73, the remaining activity at 100 µM (MEKK1) was 94% and the remaining activity at 100 µM (CDK9-Cyclin T1) was 15%. The remaining activity at 100 µM (MINK1) was 40%, the remaining activity at 100 µM (IKKb) was 58% and the remaining activity at 100 µM (MNK1) was 47%. It also gave a remaining activity at 100 µM (BRK) of 100%, a remaining activity at 100 µM (DAPK1) of 41% and a remaining activity at 100 µM (SIK2) of 70%. For the same compound, the remaining activity at 100 µM (CK1γ2) was 18%, the remaining activity at 100 µM (PIM2) was 73% and the remaining activity at 100 µM (MST4) was 75%. For the same compound, the remaining activity at 100 µM (BRSK2) was 67%, the remaining activity at 100 µM (CSK) was 83% and the remaining activity at 100 µM (MLK1) was 34%.
With `CC(=O)Nc1nc2ccc(O)cc2s1` [Compound 01-71] the “residual kinase activity, AMPK” value (AMPK) was 37, the remaining activity at 100 µM (MEKK1) was 96% and the remaining activity at 100 µM (CDK9-Cyclin T1) was 48%. For the same compound, the remaining activity at 100 µM (MINK1) was 28%, the remaining activity at 100 µM (IKKb) was 63% and the remaining activity at 100 µM (MNK1) was 28%. It also gave a remaining activity at 100 µM (BRK) of 22%, a remaining activity at 100 µM (DAPK1) of 21% and a remaining activity at 100 µM (SIK2) of 32%. The remaining activity at 100 µM (CK1γ2) was 10%, the remaining activity at 100 µM (PIM2) was 38% and the remaining activity at 100 µM (MST4) was 70%. It also gave a remaining activity at 100 µM (BRSK2) of 22%, a remaining activity at 100 µM (CSK) of 78% and a remaining activity at 100 µM (MLK1) of 11%.
With `O=C(Nc1nc2cc(O)ccc2s1)c1ccncc1` [Compound 03-11] the “residual kinase activity, AMPK” value (AMPK) was 84, the “residual kinase activity, MEKK1” value (MEKK1) was 106 and the “residual kinase activity, CDK9-Cyclin T1” value (CDK9-Cyclin T1) was 68. For the same compound, the “residual kinase activity, MINK1” value (MINK1) was 63, the “residual kinase activity, IKKb” value (IKKb) was 80 and the “residual kinase activity, MNK1” value (MNK1) was 45. For the same compound, the “residual kinase activity, BRK” value (BRK) was 93, the “residual kinase activity, DAPK1” value (DAPK1) was 62 and the “residual kinase activity, SIK2” value (SIK2) was 79. The “residual kinase activity, CK1γ2” value (CK1γ2) was 81, the “residual kinase activity, PIM2” value (PIM2) was 89 and the “residual kinase activity, MST4” value (MST4) was 134. The “residual kinase activity, BRSK2” value (BRSK2) was 81, the “residual kinase activity, CSK” value (CSK) was 94 and the “residual kinase activity, MLK1” value (MLK1) was 71.
